# Assay results as given in ChEMBL document CHEMBL5344425, “Discovery of 5-(Pyrimidin-2-ylamino)-1H-indole-2-carboxamide Derivatives as Nur77 Modulators with Selective and Potent Activity Against Triple-Negative Breast Cancer” (J Med Chem, 2023).
# The source made the active and inactive calls. The calls are words filed in the database; no cut-off is given here.
# Tests used:
# MDA-MB-231 [1] = assay: Induction of apoptosis in human MDA-MB-231 cells transfected with Nur77 siRNA assessed as early apoptotic cells at 2 uM measured after 6 hrs by AnnexinV-FITC/PI staining based flow cytometry (reference value: 1.88%); assay type: functional
# MDA-MB-231 [2] = assay: Induction of apoptosis in human MDA-MB-231 cells transfected with Nur77 siRNA assessed as PARP cleavage at 0.5 to 2 uM measured after 6 hrs by western blot analysis; assay type: functional, cell-based; details: dose 0.5-2 µM
# [3] = Toxicity in BALB/c mouse xenografted with human MDA-MB-231 cells assessed as morphological changes in heart at 10 mg/kg, ip qd for 16 days by Hematoxylin-Eosin staining based analysis; assay type: organism-based; details: in vivo, 384 h, time 16 day
# MDA-MB-231 [4] = assay: Induction of apoptosis in human MDA-MB-231 cells assessed as proportion of early apoptotic cells at 1.25 uM measured after 5 hrs by AnnexinV-FITC/PI staining based flow cytometry (reference value: 3.35%); assay type: functional
# MDA-MB-231 [5] = assay: Antitumor activity against human MDA-MB-231 cells xenografted in BALB/c mouse assessed as increase in cleaved caspase-3 expression in tumor at 10 mg/kg, ip qd for 16 days by immunohistochemical staining based analysis; assay type: functional, organism-based; details: time 16.0 day
# MDA-MB-231 [6] = assay: Induction of apoptosis in human MDA-MB-231 cells assessed as proportion of early apoptotic cells at 5 uM measured after 5 hrs by AnnexinV-FITC/PI staining based flow cytometry (reference value: 3.35%); assay type: functional
# MDA-MB-231 [7] = assay: Induction of apoptosis in human MDA-MB-231 cells assessed as proportion of late apoptotic cells at 0.63 uM measured after 5 hrs by AnnexinV-FITC/PI staining based flow cytometry (reference value: 2.55%); assay type: functional
# [8] = molecular target: T1, Nuclear receptor subfamily 4immunitygroup A member 1 (Homo sapiens, UniProt P22736); assay: Binding affinity to His-tagged Nur77 ligand binding domain (unknown origin) at 10 uM by surface plasmon resonance assay; details: filed as modulator
# T1 sequence (P22736 whole entry, the tested form may be a part): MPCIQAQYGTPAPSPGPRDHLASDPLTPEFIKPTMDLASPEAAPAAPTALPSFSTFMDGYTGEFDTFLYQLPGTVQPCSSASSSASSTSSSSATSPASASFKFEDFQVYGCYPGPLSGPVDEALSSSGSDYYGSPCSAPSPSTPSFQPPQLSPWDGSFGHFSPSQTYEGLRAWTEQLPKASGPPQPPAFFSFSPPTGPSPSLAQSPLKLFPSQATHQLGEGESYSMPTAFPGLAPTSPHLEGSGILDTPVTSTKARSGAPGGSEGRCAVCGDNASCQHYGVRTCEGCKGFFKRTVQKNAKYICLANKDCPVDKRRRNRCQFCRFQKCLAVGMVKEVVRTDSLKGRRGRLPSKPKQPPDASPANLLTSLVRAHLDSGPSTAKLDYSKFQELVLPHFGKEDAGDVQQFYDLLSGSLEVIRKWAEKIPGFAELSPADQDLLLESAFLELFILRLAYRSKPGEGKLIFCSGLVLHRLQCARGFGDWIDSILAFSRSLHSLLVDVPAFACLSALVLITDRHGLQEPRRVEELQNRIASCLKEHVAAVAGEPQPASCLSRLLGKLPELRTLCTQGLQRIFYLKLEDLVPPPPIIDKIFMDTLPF
# [9] = Selectivity index, ratio of IC50 for cytotoxicity against human MCF-10A cells to IC50 for antiproliferative activity against human T47D cells; assay type: toxicity, cell-based; details: MCF-10A cells versus T47D cells, read-out: Ratio IC50
# MDA-MB-231 [10] = assay: Induction of apoptosis in human MDA-MB-231 cells transfected with Myc-Nur77 assessed as PARP cleavage at 2 to 5 uM measured after 6 hrs by western blot analysis; assay type: functional, cell-based; details: dose 2-5 µM
# MDA-MB-231 [11] = assay: Induction of apoptosis in human MDA-MB-231 cells assessed as proportion of late apoptotic cells at 2.5 uM measured after 5 hrs by AnnexinV-FITC/PI staining based flow cytometry (reference value: 2.55%); assay type: functional
# [12] = Toxicity in Zebra fish AB embryo assessed as mortality rate at 1.25 uM measured after 24 to 72 hrs; parameters: species or system Danio rerio; details: zebrafish, 1.25 µM, time 24-72 hrs
# MDA-MB-231 [13] = assay: Induction of apoptosis in human MDA-MB-231 cells transfected with ctr siRNA assessed as early apoptotic cells at 1 uM measured after 6 hrs by AnnexinV-FITC/PI staining based flow cytometry (reference value: 1.88%); assay type: functional
# [14] = molecular target: T1, Nuclear receptor subfamily 4immunitygroup A member 1; assay: Antagonist activity at Nur77 ligand binding domain (unknown origin) transfected in HEK293T cells cotransfected with pG5-Luc assessed as inhibition of receptor transcriptional activity at 1 uM measured after 12 hrs by luciferase reporter gene assay; assay type: cell-based; details: filed as antagonist
# [15] = molecular target: T1, Nuclear receptor subfamily 4immunitygroup A member 1; assay: Binding affinity to wild type Nur77 ligand binding domain (unknown origin) assessed as decrease in fluorescence intensity incubated for 30 secs by fluorescence spectrophotometric analysis
# MDA-MB-231 [16] = assay: Induction of apoptosis in human MDA-MB-231 cells assessed as PARP cleavage at 2.5 uM pretreated with proteasome and calpain inhibitor, MG132 for 4 hrs followed by compound addition and measured after 6 hrs by western blot analysis; assay type: functional, cell-based
# [17] = Toxicity in BALB/c mouse xenografted with human MDA-MB-231 cells assessed as abnormal behaviour at 10 mg/kg, ip qd for 16 days; assay type: organism-based; details: in vivo, 384 h, time 16 day
# MDA-MB-231 [18] = assay: Induction of apoptosis in human MDA-MB-231 cells transfected with Nur77 siRNA assessed as late apoptotic cells at 1 uM measured after 6 hrs by AnnexinV-FITC/PI staining based flow cytometry (reference value: 3.97%); assay type: functional
# HCT-116 = assay: Antiproliferative activity against human HCT-116 cells assessed as inhibition of cell growth measured after 24 hrs by MTT assay; assay type: functional, cell-based; details: HCT-116, 24 h
# MDA-MB-231 [19] = assay: Induction of apoptosis in human MDA-MB-231 cells transfected with ctr siRNA assessed as early apoptotic cells at 2 uM measured after 6 hrs by AnnexinV-FITC/PI staining based flow cytometry (reference value: 1.88%); assay type: functional
# [20] = Selectivity index, ratio of IC50 for cytotoxicity against human MCF-10A cells to IC50 for antiproliferative activity against human MCF7 cells; assay type: toxicity, cell-based; details: MCF-10A cells versus MCF7 cells, read-out: Ratio IC50
# MDA-MB-231 [21] = assay: Induction of apoptosis in human MDA-MB-231 cells assessed as PARP cleavage at 2.5 uM pretreated with mTOR inhibitor, rapamycin for 4 hrs followed by compound addition and measured after 6 hrs by western blot analysis; assay type: functional, cell-based
# MDA-MB-231 [22] = assay: Induction of apoptosis in human MDA-MB-231 cells assessed as proportion of early apoptotic cells at 2.5 uM measured after 5 hrs by AnnexinV-FITC/PI staining based flow cytometry (reference value: 3.35%); assay type: functional
# MDA-MB-231 [23] = assay: Induction of apoptosis in human MDA-MB-231 cells assessed as proportion of late apoptotic cells at 1.25 uM measured after 5 hrs by AnnexinV-FITC/PI staining based flow cytometry (reference value: 2.55%); assay type: functional
# [24] = molecular target: T1, Nuclear receptor subfamily 4immunitygroup A member 1; assay: Modulation of Nur77 in human MDA-MB-231 cells assessed as increase in TP53 phosphorylation at Ser392 residue at 0.31 to 5 uM measured after 6 hrs by western blot analysis; assay type: cell-based; details: dose 0.31-5 µM
# MDA-MB-231 [25] = assay: Induction of apoptosis in human MDA-MB-231 cells transfected with Nur77 siRNA assessed as early apoptotic cells at 1 uM measured after 6 hrs by AnnexinV-FITC/PI staining based flow cytometry (reference value: 1.88%); assay type: functional
# [26] = Toxicity in BALB/c mouse xenografted with human MDA-MB-231 cells assessed as morphological changes in liver at 10 mg/kg, ip qd for 16 days by Hematoxylin-Eosin staining based analysis; assay type: organism-based; details: in vivo, 384 h, time 16 day
# MDA-MB-231 [27] = assay: Induction of apoptosis in human MDA-MB-231 cells assessed as PARP cleavage at 2.5 uM pretreated with caspase inhibitor, Z-VAD-FMK for 4 hrs followed by compound addition and measured after 6 hrs by western blot analysis; assay type: functional, cell-based
# MDA-MB-231 [28] = assay: Induction of apoptosis in human MDA-MB-231 cells assessed as PARP cleavage measured after 6 hrs by western blot analysis; assay type: functional, cell-based; details: dose 0.5-5 µM
# MDA-MB-231 [29] = assay: Induction of apoptosis in human MDA-MB-231 cells transfected with ctr siRNA assessed as loss of mitochondrial membrane potential at 1 uM measured after 6 hrs by JC-1 staining based flow cytometry (reference value: 13.93%); assay type: functional
# MDA-MB-231 [30] = assay: Antitumor activity against human MDA-MB-231 cells xenografted in BALB/c mouse assessed as inhibition of tumor growth at 10 mg/kg, ip qd for 16 days; assay type: functional; details: MDA-MB-231, 384 h, time 16 day, read-out: TGI
smiles,measurement,setting,value
CCN(CC)CCCNC(=O)c1cc2cc(Nc3nccc(-c4sc(NC)nc4C)n3)ccc2[nH]1,Activity,MDA-MB-231 [1],2.5%
same,Activity,MDA-MB-231 [2],inactive
same,Activity,[3],Non-Toxic
same,Activity,MDA-MB-231 [4],35.95%
same,Activity,MDA-MB-231 [5],Active
same,Activity,MDA-MB-231 [6],52.78%
same,Activity,MDA-MB-231 [7],5.16%
same,Activity,[8],Active
same,selectivity ratio,[9],45.7
same,Activity,MDA-MB-231 [10],Active
same,Activity,MDA-MB-231 [11],16.69%
same,Activity,[12],Non-Toxic
same,Activity,MDA-MB-231 [13],11.24%
same,inhibition,[14],Active
same,Kd,[15],0.154 µM
same,Activity,MDA-MB-231 [16],inactive
same,Activity,[17],Non-Toxic
same,Activity,MDA-MB-231 [18],2.24%
same,IC50,HCT-116,9.84 µM
same,Activity,MDA-MB-231 [19],19.23%
same,selectivity ratio,[20],66.7
same,Activity,MDA-MB-231 [21],Active
same,Activity,MDA-MB-231 [22],38.14%
same,Activity,MDA-MB-231 [23],4.06%
same,Activity,[24],inactive
same,Activity,MDA-MB-231 [25],2.25%
same,Activity,[26],Non-Toxic
same,Activity,MDA-MB-231 [27],inactive
same,Activity,MDA-MB-231 [28],Dose-Dependent Effect
same,Activity,MDA-MB-231 [29],35.26%
same,inhibition in vivo at 10 mg/kg,MDA-MB-231 [30],100%
